The text below walks through data of patent EP0695746A2, “Antiviral compounds and pharmaceutical compositions” (PHARMA MAR, S.A., priority 1994, dated 1996).

One series concerns HIV-1. Nature of the series: HIV-1 antiviral in vitro assays. It is filed as cell-based.
The test system of series [1] is CEM-SS cells. Nature of the series: Syncytium-forming assay (Syncytia assay), toxicity in drug control wells. It is filed as cell-based. The settings on record: Homo sapiens. The method, then:
(§1) The assay described above for determining viral titers of HIV-1 stock virus can be modified and used to evaluate the antiviral activity of compounds. A.5.1. Plates are treated with poly-L-lysine the same as above, and CEM-SS cells are polybrene treated. A.5.2. Dilute test compound in medium to desired concentrations. A.5.3. Add 100 µl CEM-SS cells to each well so that the final cell concentration is 50,000 cells per well. A.5.4. Add 50 µl of the test compound at each respective concentration to at least two wells, or four for one replicate assay. A.5.5. Add 50 µl growth medium to drug control wells. A.5.6. Add 50 µl HIV-1 virus to test wells at a concentration that provides approximately 100 SFU of virus per well. A.5.7. Run appropriate cell and viral controls. A.5.8. Incubate plates for 3 to 5 days. A.5.9. On day 3 to 5 cover plates with clear plastic sealers and count syncytial-forming units in the test wells and viral control wells. To determine if the test compounds have antiviral activity, compare the total number of SFU in the viral control to those enumerated in the test wells.

The subject of series [2] is HIV-1 RF. Nature of the series: Syncytium-forming assay (Syncytia assay), antiviral activity. It is filed as cell-based.
Source text: To determine the HIV-1 viral titers the quantitative infectivity syncytium-forming assay described by P.L. Nara and P.J. Fischinger, "Quantitative Infectivity Assay for HIV-1 and -2," Nature, 332: 469 (1988)) was used. In this assay a single infectious unit of virus infects a single cell and initiates a focal cell change such as syncytium formation. Because a single infectious unit causes a single response, a linear relationship exists between the number of cytopathic effects caused by viral infection and the first order of virus concentration. This quantitative assay can be used to determine the titers of the HIV-1 in viral stocks, neutralization tests, and antiviral assays.
The quantitative infectivity syncytium-forming assay is applied for the direct quantitation of fusigenic virus-infected cells. CEM-SS cells were used for the syncytium-forming assay. CEM-SS cell are human T4-lymphoblastoid cells of a cell line initially derived by G.E. Foley, et al., "Continuous Culture to Human Lymphoblasts from Peripheral Blood of a Child with Acute Leukemia," Cancer, 18: 522 (1965) and biologically cloned by Nara et al., supra. The cells for this assay were provided by Dr. Nara.
CEM-SS cells were maintained in a growth medium of RPMI 1640, 10% fetal bovine serum, 1% L-glutamine (200 mM) and 50 µg/ml of gentamicin. CEM-SS cells grow in suspension. The cells have been cloned for both poly-L-lysine-induced adherence to microtiter plates and virus-induced syncytial and fusogenic sensitivity following infection with either cell-free or cell-associated HIV-1 and HIV-2. It has been determined that the cells are negative for virus including human retroviruses as determined by electron microscopy and reverse transcriptase analysis.
A.4.1. Use 96-wells flat bottom tissue culture plates and score the bottoms of all wells into 4 quadrants. A.4.2. Add 50 µl/well of diluted poly-L-lysine. Prepare stock poly-L-lysine (Poly-L-lysine hydrobromide, Sigma catalog, cat. # P-1399) at 5 mg/ml and store at -20°C for future use. For the assay dilute the stock poly-L-lysine 1:100 using phosphate buffered saline (PBS). A.4.3. Incubate plates at room temperature for no less than 30 minutes. A.4.4. Remove poly-L-lysine from wells. A.4.5. Wash the plates with 100 µl/well of Dulbecco's PBS and remove the excess PBS. A.4.6. Dilute CEM-SS cells in a logarithmic state of growth to 0.5 x 10⁶ cells per ml in a serum free medium and add 1 µg/ml polybrene. Incubate the cell suspension at 37°C for 60 minutes. Centrifuge at 800 rpm for 10 minutes and decant the supernatant fluid. A.4.7. Dilute the treated CEM-SS cell suspension to 5.0 x 10⁵ cells. Add 100 µl to the test wells so that the final cell concentration is 50,000 cells per well. Make ten-fold dilutions of the viral stock. Add 50 µl to the test wells. Add 50 µl growth medium to bring the total test volume to 200 µl. On day 3 place a clear plastic film (plate sealers, Dynatech Laboratories, Inc., cat # 001-010-3501) over the microtiter wells and evaluate for syncytium forming units (SFU).
as §1, with “wells.” for “wells. To determine if the test compounds have antiviral activity, compare the total number of SFU in the viral control to those enumerated in the test wells.”

For series [3], the system named is HIV-1 RF. Nature of the series: XTT cytoprotection assay (called Cytotoxic Assay in the tables), antiviral activity. It is filed as cell-based. (In general: Tetrazolium assays rely on reduction of a dye to a coloured formazan, in cell work by metabolically active cells.)
Description: Changes were made to accommodate changes in solvent systems and drug test dilutions.
For the cytoprotection assay CEM-SS cells and HIV-1 RF strain of virus were used. Test samples were first diluted in an appropriate solvent, and 10 to 50 µl were transferred to the test plate. If the solvent was methanol or a similar solvent, the plates were allowed to evaporate. If medium was used for dilutions the plates were covered and the volume of test sample was taken into consideration when adding cells and virus. At each test concentration 50 µl of sample were added to three wells, one for toxicity tests, one for color control, and one for antiviral activity. Assuming the solvent was evaporated, 150 µl cells are added to all wells, except the control wells for medium only, so that the cell concentration per well was 5000. Then 50 µl of HIV-1 virus was added to each test well so that the M.O.I. was approximately 0.31. For toxicity tests 50 µl of medium were added to the control well. The plates were incubated in 5% CO₂ for 6 days at 37°C. After incubation, the XTT solution was added to the plates, and after 4 hours incubation at 37°C the plates are covered with clear plastic sealers. Cell viability was measured by the visible light absorbance at 450 nm and a reference wavelength of 650 nm. Data were expressed as a percentage of formazan produced in drug test wells compared to formazan produced in wells of untreated control cells.
Cells were maintained in the logarithmic growth state by subdividing cultures when the cell concentrations reach an upper limit of 1 x 10⁶ cells per ml.
For antiviral assays CEM-SS cells at a cell concentration of 5.0 x 10⁵ in serum free medium were treated with polybrene at a concentration of 1 µg/ml and incubated for 30 to 60 minutes at 37°C. Polybrene medium was removed by centrifugation, and CEM-SS cells were resuspended in growth medium. If solvents were evaporated the cell concentration was 33,500 cells per ml so that 150 µl contained 5000 cells. If medium was the dilution vehicle then the cell concentration was 50,000 so that 100 µl contained 5000 cells. The total test volume for medium, cells, and virus was 200 µl.
Store frozen at -20°C (0.1 to 0.2 ml per vial). Warm to 37°C as needed. […] PMS dilution for XTT medium: Dilute PMS stock from freezer 1:100 in PBS. Add 4% to medium. […] Formula for XTT/PMS solution for 1 plate (5 ml per plate)
Dissolve XTT in medium, add PMS/PBS. Warm to 37°C for approximately 10 to 15 minutes to obtain an homogeneous solution. Add 50 µl per plate Incubate for 4 hours. Read A(450-650) nm. […] The data was processed to convert optical density readings to a percentage of inhibition compared to CEM-SS cells that have not been infected with HIV-1 virus. C = cells D = Drug or Sample M = Medium V = Virus
% toxicity = 100 - [(((M + D + C) - M) ÷ ((M + C) - M)) * 100] [formula] % antiviral = ((M + D + C + V)-V-M)) ÷ ((M + D + C)-(V-M))) * 100 [formula]
The subject of series [4] is CEM-SS cells. Nature of the series: XTT cytoprotection assay (Cytotoxic Assay), toxicity wells without virus. It is filed as cell-based, human. The settings on record: Table VI, assay date. Here is the method:
This assay is a measure of the viability of human T cell lines after infection with HIV in the presence of potential antiviral compounds. The results are assessed spectrophometrically by reading optical densities after the addition of XTT to determine if the viable cells reduced the pale yellow tetrazolium reagent (XTT) to an orange formazan product. This assay can be utilized for the initial screen of large numbers of samples. For the cytoprotection assay CEM-SS cells and HIV-1 RF strain of virus were used. Test samples were first diluted in an appropriate solvent, and 10 to 50 μl were transferred to the test plate. If the solvent was methanol or a similar solvent, the plates were allowed to evaporate. If medium was used for dilutions the plates were covered and the volume of test sample was taken into consideration when adding cells and virus. At each test concentration 50 μl of sample were added to three wells, one for toxicity tests, one for color control, and one for antiviral activity. Assuming the solvent was evaporated, 150 μl cells are added to all wells, except the control wells for medium only, so that the cell concentration per well was 5000. Then 50 μl of HIV-1 virus was added to each test well so that the M.O.I. was approximately 0.31. For toxicity tests 50 μl of medium were added to the control well. The plates were incubated in 5% CO2 for 6 days at 37°C. After incubation, the XTT solution was added to the plates, and after 4 hours incubation at 37°C the plates are covered with clear plastic sealers. Cell viability was measured by the visible light absorbance at 450 nm and a reference wavelength of 650 nm. Data were expressed as a percentage of formazan produced in drug test wells compared to formazan produced in wells of untreated control cells. CEM-SS cells were maintained with growth medium RPMI 1640, 10% fetal bovine serum, 2% L-glutamine (200 mM), and 50 μg/ml gentamicin in a 5% CO2 water-saturated atmosphere. Cells were maintained in the logarithmic growth state by subdividing cultures when the cell concentrations reach an upper limit of 1 x 10^6 cells per ml. […] Polybrene medium was removed by centrifugation, and CEM-SS cells were resuspended in growth medium. If solvents were evaporated the cell concentration was 33,500 cells per ml so that 150 μl contained 5000 cells. If medium was the dilution vehicle then the cell concentration was 50,000 so that 100 μl contained 5000 cells. The total test volume for medium, cells, and virus was 200 μl. Dissolve XTT in medium, add PMS/PBS. Warm to 37°C for approximately 10 to 15 minutes to obtain an homogeneous solution. Add 50 μl per plate Incubate for 4 hours. Read A(450-650) nm. B.2.5. Data processing After the plates were read spectrophotometrically the data was transferred via modem from the laboratory to the office. The data was processed to convert optical density readings to a percentage of inhibition compared to CEM-SS cells that have not been infected with HIV-1 virus. C = cells D = Drug or Sample M = Medium V = Virus M = medium only in well V = medium + CEM-SS cells + virus in well (M + C) = medium + CEM-SS cells (M + D) = medium + drug in well (M + D + C) = medium + drug + CEM-SS cell in well (M+D+C+V) = medium + drug + CEM-SS cells + virus in well.

A further series relates to CD-1 mice. Nature of the series: In vivo toxicity test, single injection. Here is the method:
The LD₅₀ for the compound was > 150 mg/kg.

The subject of a further series is HIV-1 p24 core antigen. Nature of the series: p24 ELISA on supernatant of the cytotoxic assay wells. It is filed as cell-based. Here is the method: Secondary assays for evaluating antiviral activity included the syncytial-forming assay and p24 ELISA's. The first assay was described above. The p24 assay was performed by purchasing the p24 kit for the human immunodeficiency virus for p24 antigen assays from the Coulter Corporation, Hialeah, FL. […] The preparation of a mouse monoclonal antibody with high specificity and affinity for the viral p24 protein has allowed the development of an extremely sensitive ELISA for HIV-1 p24 core antigen.
An assay for antiviral activity to HIV-1 was started on 10-28-93 using the cytotoxic assay as described above and HIV-1 activity was observed microscopically in this sample on day 4 of the cytotoxic assay. On day six, 10 µl of supernatant fluid were removed from the cytotoxic wells and assayed for p24. The results of the cytotoxic assay, p24 assay, and syncytia assay were: […]
Background: ELISA stands for enzyme-linked immunosorbent assay.

Setting [5] is: Table III, Syncytia Assay (M.O.I. = .005).
Setting [6] is: Human immunodeficiency virus 1, Table VI, Cytotoxic Assay, assay date, read-out: EC50 (converted).
Setting [7] is: Homo sapiens, CEM-SS, read-out: IC50 (converted).
The mark [8] stands for this setting: Table VI, Syncytia Assay, 06-29-94.
Setting [9] is: Human immunodeficiency virus 1, Table VI, Syncytia Assay, 06-29-94, read-out: EC50 (converted).

≈ marks a conversion by molar mass, not a printed value. Where only a bound is given, the exact number is not on record here.

Turning to `CC1(C)CCC[C@]2(C)[C@@H](c3ccoc3)C(=O)[C@@H]3O[C@]312` [PM-92131 (-)], in the series with HIV-1, the “HIV-1 antiviral activity (in words)” value is “active against HIV-1”. The same molecule showed an IC50 in the series with CEM-SS cells [1] (setting [5]) of 40 µg/mL (≈ 154 µM). Also, the EC50 with HIV-1 RF [2] (Human immunodeficiency virus 1, Table III, Syncytia Assay (M.O.I. = .005), read-out: EC50 (converted)) was 4 µg/mL. In the series with HIV-1 RF [2] (setting [5]), this molecule registered an SI of 10.

`CC1(C)CCC[C@@]2(C)[C@H](c3ccccc3)C(=O)[C@H]3O[C@@]312` (racemic) [PM-94118(±)]: the EC50 with HIV-1 RF [3] (setting [6]) is 3 µg/mL; in the series on HIV-1 RF [2] (setting [9]), 2 µg/mL. Moreover, the IC50 was 9 µg/mL (≈ 33.3 µM) in the series on CEM-SS cells [4] (setting [7]), 1.87 μg/200 μl in the series on CEM-SS cells [4] and 20 µg/mL (≈ 74 µM) in the series on CEM-SS cells [1] (setting [8]). This molecule also yielded an SI in the series with HIV-1 RF [2] (setting [8]) of 10.

`CC1(C)CCC[C@]2(C)[C@H](c3ccsc3)C(=O)[C@H]3O[C@@]312` (racemic) [PM-94116 & PM-94117 (1:1)]: the EC50 in the series with HIV-1 RF [3] (setting [6]) is 2.15 µg/mL; in the series on HIV-1 RF [2] (setting [9]), 1 µg/mL. Besides, the SI was determined as 2 with HIV-1 RF [3] (Table VI, Cytotoxic Assay) and 11 with HIV-1 RF [2] (setting [8]). Moreover, the IC50 with CEM-SS cells [4] (setting [7]) is 4.35 µg/mL (≈ 15.7 µM); with CEM-SS cells [1] (setting [8]) it was 11 µg/mL (≈ 39.8 µM). Besides, the “HIV-1 antiviral activity (in words)” value with HIV-1 is given as “exhibit anti-HIV-1 activity”.

For `Cc1cn([C@H]2C[C@H](N=[N+]=[N-])[C@@H](CO)O2)c(=O)[nH]c1=O` [AZT, 3'-azido-3'-deoxythymidine, reference compound], the EC50 was 0.1 µM with HIV-1 RF [3] (Human immunodeficiency virus 1, Table V, Cytoprotection Assay, MOI 0.037, read-out: EC₅₀); 0.46 µM with HIV-1 RF [3] (Human immunodeficiency virus 1, Table V, Cytoprotection Assay, MOI 0.074, read-out: EC₅₀); 1.3 µM in the series with HIV-1 RF [3] (Human immunodeficiency virus 1, Table V, Cytoprotection Assay, MOI 0.149, read-out: EC₅₀); 0.01 µM with HIV-1 RF [2] (Human immunodeficiency virus 1, Table IV, Syncytia Assay, MOI 0.002, read-out: EC₅₀); 0.01 µM with HIV-1 RF [2] (Human immunodeficiency virus 1, Table IV, Syncytia Assay, MOI 0.004, read-out: EC₅₀); 0.01 µM in the series with HIV-1 RF [2] (Human immunodeficiency virus 1, Table IV, Syncytia Assay, MOI 0.008, read-out: EC₅₀). The EC50 with HIV-1 RF [2] (Human immunodeficiency virus 1, Table IV, Syncytia Assay, MOI 0.016, read-out: EC₅₀) was 0.07 µM.

In the case of `CC1(C)CCC[C@@]2(C)[C@H](c3ccoc3)C(=O)[C@H]3O[C@@]312` (racemic) [PM-92131 (±)], in the series with CD-1 mice, the LD₅₀ is on record as over 150 mg/kg. In addition, the EC50 in the series on HIV-1 p24 core antigen (Human immunodeficiency virus 1, Table I, P24 ELISA) was 0.5 µg/mL (≈ 1.92 µM); in the series with HIV-1 p24 core antigen (Human immunodeficiency virus 1, Table III, p24 ELISA Assay) it was 0.35 µg/mL (≈ 1.34 µM).

In the case of `CC1(C)CCC[C@@]2(C)[C@H](c3ccsc3)C(=O)[C@H]3O[C@@]312` (racemic) [SU-0096(±)], the IC50 in the series on CEM-SS cells [4] (setting [7]) is 4.5 µg/mL (≈ 16.3 µM).

On to `CC1(C)CCC[C@@]2(C)[C@@H](c3ccsc3)C(=O)[C@@H]3O[C@]312` [PM-94117], for which the IC50 in the series on CEM-SS cells [4] (setting [7]) was 12.5 µg/mL (≈ 45.2 µM); with CEM-SS cells [1] (setting [8]), 15 µg/mL (≈ 54.3 µM). Further, in the series with HIV-1 RF [2] (setting [9]), the EC50 is 1.2 µg/mL. Besides, the SI in the series on HIV-1 RF [2] (setting [8]) is reported as 13.
